Assays:
Format in all cases: biochemical
[1] = target: PDE5A (Homo sapiens, UniProt O76074); experiment: in vitro PDE inhibition assay, % inhibition at […]; settings: read-out: Inhibition (%) of Compounds at 50 μM / PDE5A
[2] = target: T1, PDE4D (phosphodiesterase-4D) (Homo sapiens, UniProt Q08499); experiment: in vitro PDE inhibition assay (previously reported method)
[3] = target: T1, PDE4D (phosphodiesterase-4D); experiment: in vitro PDE inhibition assay, % inhibition at […]; settings: read-out: Inhibition (%) of Compounds at 50 μM / PDE4D

T1 sequence (Q08499 whole entry): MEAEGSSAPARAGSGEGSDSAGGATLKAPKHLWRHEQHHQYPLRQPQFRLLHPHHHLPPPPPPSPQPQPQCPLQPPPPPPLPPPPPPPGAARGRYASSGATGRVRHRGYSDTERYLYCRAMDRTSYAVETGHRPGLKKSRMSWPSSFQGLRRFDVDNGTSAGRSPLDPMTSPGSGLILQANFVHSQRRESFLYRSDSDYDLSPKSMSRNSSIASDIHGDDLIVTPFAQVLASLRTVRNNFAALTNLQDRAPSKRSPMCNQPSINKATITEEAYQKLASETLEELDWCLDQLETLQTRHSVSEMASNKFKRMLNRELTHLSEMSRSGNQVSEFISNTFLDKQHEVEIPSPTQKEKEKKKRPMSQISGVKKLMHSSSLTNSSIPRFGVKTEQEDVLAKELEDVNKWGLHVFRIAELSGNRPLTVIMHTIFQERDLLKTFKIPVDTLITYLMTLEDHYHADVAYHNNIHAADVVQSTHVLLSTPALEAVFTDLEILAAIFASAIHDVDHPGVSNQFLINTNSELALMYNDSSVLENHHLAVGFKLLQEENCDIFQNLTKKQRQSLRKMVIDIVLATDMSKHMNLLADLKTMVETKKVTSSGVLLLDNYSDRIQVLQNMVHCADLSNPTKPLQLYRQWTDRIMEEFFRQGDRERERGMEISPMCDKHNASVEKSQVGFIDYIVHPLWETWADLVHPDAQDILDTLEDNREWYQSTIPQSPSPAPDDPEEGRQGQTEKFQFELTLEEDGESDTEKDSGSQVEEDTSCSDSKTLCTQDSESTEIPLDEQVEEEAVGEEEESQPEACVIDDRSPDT

Row | SMILES | inhibition at 50 µM [1] | IC50 [2] | inhibition at 50 µM [3]
1 | CC(C)=CC(=O)C/C(C)=C/CC/C(C)=C/CC/C(C)=C/Cn1cnc2c1c(=O)ncn2C [compound 1, malonganenone L] | 53% | 8.5 µM | –
2 | CC(C)=CC(=O)C/C(C)=C\CC/C(C)=C/CC/C(C)=C/Cn1cnc2c1c(=O)ncn2C [compound 2, malonganenone M] | – | – | 72%
3 | CC(C)=CC(=O)/C=C(\C)CCC/C(C)=C/CC/C(C)=C/Cn1cnc2c1c(=O)ncn2C [compound 3, malonganenone N] | – | – | 81%
4 | CNC(=O)c1c(N(C)C=O)ncn1C/C=C(\C)CC/C=C(\C)CC/C=C(\C)CC(=O)C=C(C)C [compound 4, malonganenone O] | – | – | 79%

Second part, the compound after the results:

Row | inhibition at 50 µM [1] | IC50 [2] | inhibition at 50 µM [3] | SMILES
5 | – | – | 75% | CNC(=O)c1c(N(C)C=O)ncn1C/C=C(\C)CC/C=C(\C)CC/C=C(/C)CC(=O)C=C(C)C [compound 5, malonganenone P]
6 | – | 20.3 µM | – | CNC(=O)c1c(N(C)C=O)ncn1C/C=C(\C)CC/C=C(\C)CCC/C(C)=C\C(=O)C=C(C)C [compound 6, malonganenone Q]
